Our source for the IC50 values is patent US20260224571A1, “AZACYCLOALKANE COMPOUND AND PHARMACEUTICAL COMPOSITION, AND USE THEREOF” (Prime Gene Therapeutics Co., Ltd., priority 2023, published 2026).

The target in one assay is ROCK1 (Homo sapiens, UniProt Q13464). As to the kind of experiment: ROCK1 kinase enzymatic activity (HTRF, STK2 substrate). It counts as biochemical. Particulars: ROCK1 kinase reacted at room temperature for 20 minutes. The source says:
(§1) The kinase activity data was expressed by comparing the kinase activity of the test compound and that of the blank group (containing only DMSO), and the IC50 value was obtained by curve fitting using Prism software (GraphPad7.0).
On the technique in general: Time-resolved FRET reads energy transfer from a long-lived donor to a nearby acceptor.

A further assay concerns the target ROCK2 (Homo sapiens, UniProt O75116). Kind of assay: ROCK2 kinase enzymatic activity (HTRF, STK2 substrate). It counts as biochemical. To be noted: ROCK2 kinase reacted at room temperature for 30 minutes.
Excerpt: as §1

As a reminder, the IC50 is the point on the concentration scale where inhibition reaches its midpoint. Lower therefore signals higher potency.

ROCK1, sequence (Q13464 whole entry): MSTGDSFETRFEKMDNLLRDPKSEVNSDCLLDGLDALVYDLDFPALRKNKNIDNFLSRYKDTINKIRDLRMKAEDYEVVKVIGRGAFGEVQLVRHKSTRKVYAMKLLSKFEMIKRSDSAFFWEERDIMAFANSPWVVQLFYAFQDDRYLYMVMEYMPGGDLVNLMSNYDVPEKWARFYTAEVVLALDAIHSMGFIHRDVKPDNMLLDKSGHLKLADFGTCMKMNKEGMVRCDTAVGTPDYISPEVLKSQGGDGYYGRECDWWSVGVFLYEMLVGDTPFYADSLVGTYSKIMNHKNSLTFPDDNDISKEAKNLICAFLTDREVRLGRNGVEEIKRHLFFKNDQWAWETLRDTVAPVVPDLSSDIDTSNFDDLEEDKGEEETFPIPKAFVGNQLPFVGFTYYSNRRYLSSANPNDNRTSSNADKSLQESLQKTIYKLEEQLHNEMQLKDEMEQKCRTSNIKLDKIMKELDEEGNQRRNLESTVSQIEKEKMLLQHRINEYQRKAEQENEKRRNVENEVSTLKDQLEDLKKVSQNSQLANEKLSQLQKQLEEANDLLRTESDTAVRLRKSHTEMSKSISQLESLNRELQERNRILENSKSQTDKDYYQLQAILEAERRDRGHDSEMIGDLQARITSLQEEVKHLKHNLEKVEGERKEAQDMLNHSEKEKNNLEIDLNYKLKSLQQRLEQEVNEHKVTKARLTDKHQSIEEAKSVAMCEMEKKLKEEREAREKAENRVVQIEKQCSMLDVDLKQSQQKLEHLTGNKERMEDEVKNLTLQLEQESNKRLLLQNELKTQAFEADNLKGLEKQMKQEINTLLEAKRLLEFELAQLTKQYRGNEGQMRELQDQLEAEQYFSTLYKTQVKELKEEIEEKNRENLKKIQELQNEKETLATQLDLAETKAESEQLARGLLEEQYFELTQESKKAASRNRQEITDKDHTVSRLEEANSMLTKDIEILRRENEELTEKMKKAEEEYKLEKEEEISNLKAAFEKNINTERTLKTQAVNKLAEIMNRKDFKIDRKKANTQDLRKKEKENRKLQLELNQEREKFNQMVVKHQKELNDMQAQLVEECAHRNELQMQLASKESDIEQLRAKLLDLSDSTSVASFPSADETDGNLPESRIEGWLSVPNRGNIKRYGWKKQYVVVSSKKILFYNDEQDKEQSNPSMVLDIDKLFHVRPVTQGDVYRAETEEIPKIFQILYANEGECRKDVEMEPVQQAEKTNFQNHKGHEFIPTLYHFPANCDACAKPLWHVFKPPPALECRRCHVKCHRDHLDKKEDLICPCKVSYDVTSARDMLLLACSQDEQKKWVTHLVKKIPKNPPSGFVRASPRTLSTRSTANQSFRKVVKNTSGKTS
ROCK2, sequence (O75116 whole entry): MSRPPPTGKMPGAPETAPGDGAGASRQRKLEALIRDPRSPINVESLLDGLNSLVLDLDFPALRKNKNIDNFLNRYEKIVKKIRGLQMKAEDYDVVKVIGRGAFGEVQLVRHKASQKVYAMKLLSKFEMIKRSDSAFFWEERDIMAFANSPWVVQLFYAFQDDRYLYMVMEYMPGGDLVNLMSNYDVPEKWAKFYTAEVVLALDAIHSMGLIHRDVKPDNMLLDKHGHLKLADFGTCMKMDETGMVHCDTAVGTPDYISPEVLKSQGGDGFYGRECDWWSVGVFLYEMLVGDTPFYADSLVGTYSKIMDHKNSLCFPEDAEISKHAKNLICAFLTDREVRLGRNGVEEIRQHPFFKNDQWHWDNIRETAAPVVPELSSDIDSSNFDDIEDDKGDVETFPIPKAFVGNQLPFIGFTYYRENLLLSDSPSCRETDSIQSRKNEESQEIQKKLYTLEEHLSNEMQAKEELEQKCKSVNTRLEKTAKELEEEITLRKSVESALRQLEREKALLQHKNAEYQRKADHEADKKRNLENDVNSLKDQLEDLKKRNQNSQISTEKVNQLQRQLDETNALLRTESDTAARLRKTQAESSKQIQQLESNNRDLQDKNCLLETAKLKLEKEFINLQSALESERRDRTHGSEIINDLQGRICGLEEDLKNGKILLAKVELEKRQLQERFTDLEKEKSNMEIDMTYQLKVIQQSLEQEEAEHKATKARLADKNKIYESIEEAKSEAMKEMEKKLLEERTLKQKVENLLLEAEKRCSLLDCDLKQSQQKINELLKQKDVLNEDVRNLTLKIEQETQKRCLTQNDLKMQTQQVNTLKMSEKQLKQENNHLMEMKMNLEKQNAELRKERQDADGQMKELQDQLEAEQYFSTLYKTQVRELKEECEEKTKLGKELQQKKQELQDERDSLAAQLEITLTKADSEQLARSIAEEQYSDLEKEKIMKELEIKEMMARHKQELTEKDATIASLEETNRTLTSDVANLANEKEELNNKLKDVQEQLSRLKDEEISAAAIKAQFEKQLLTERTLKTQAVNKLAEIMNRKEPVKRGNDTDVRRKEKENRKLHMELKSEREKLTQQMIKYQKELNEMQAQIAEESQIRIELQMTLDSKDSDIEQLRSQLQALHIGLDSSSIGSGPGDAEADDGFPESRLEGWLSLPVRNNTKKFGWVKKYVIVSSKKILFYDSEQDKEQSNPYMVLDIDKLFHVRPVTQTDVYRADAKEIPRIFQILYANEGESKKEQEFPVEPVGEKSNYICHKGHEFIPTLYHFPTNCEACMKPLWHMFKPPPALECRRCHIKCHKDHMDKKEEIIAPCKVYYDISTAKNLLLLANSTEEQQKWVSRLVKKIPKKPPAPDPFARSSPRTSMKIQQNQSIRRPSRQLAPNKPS

For `CC(N)CS(=O)(=O)N1CC(CC#N)(n2cc(-c3ncnc4[nH]ccc34)c(N)n2)C1` (stereo not shown) [Example 86, 2-(3-(3-amino-4-(7H-pyrrolo[2,3-d]pyrimidin-4-yl)-1H-pyrazol-1-yl)-1-((2-aminopropyl)sulfonyl)azetidine-3-yl)acetonitrile], the IC50 against ROCK1 and on ROCK2 was < 5 nM each time.
Take `CNc1cc(-c2cn(C3(CC#N)CN(S(C)(=O)=O)C3)nc2N)ncn1` [Example 77, 2-(3-(3-amino-4-(6-(methylamino)pyrimidin-4-yl)-1H-pyrazol-1-yl)-1-(methylsulfonyl)azetidine-3-yl)acetonitrile]: the half-inhibitory concentration (IC50) on ROCK1 and at ROCK2 was > 100 nM in each case.
On to `N#CCC1(n2cc(-c3ncnc4[nH]ccc34)c(N)n2)CN(C(=O)[C@@H]2C[C@H]2C#N)C1` [Example 35, (1R, 2R)-2-(3-(3-amino-4-(7H-pyrrolo[2,3-d]pyrimidin-4-yl)-1H-pyrazol-1-yl)-3-(cyanomethyl)azetidine-1-carbonyl)cyclopropane-1-nitrile], for which the IC50 against ROCK1 and at ROCK2 was < 10 nM each time.
Consider `N#CCC1(n2cc(-c3ncnc4[nH]ccc34)c(N)n2)CN(S(=O)(=O)NCC(=O)O)C1` [Example 54], for which the IC50 against ROCK1 and against ROCK2 was < 50 nM throughout.
`CS(=O)(=O)N1CC(CC#N)(n2cc(-c3cc(NCC4CCOCC4)ncn3)c(N)n2)C1` [Example 76, 2-(3-(3-amino-4-(6-((tetrahydro-2H-pyran-4-yl)methyl)amino)pyrimidin-4-yl-1H-pyrazol-1-yl)-1-(methylsulfonyl)azetidine-3-yl)acetonitrile]: the IC50 on ROCK1 and at ROCK2 was > 100 nM each time.
Regarding `N#CCC1(n2cc(-c3ncnc4[nH]ccc34)c(N)n2)CN(C(=O)C2CC2)C1` [Example 22, 2-(3-(3-amino-4-(7H-pyrrolo[2,3-d]pyrimidin-4-yl)-1H-pyrazol-1-yl)-1-(cyclopropanecarbonyl)azetidine-3-yl)acetonitrile], the IC50 at ROCK1 and against ROCK2 was < 50 nM in each case.
Consider `CC(C)S(=N)(=O)N1CC(CC#N)(n2cc(-c3ncnc4[nH]ccc34)c(N)n2)C1` (stereo not shown) [Example 39, 2-(3-(3-amino-4-(7H-pyrrolo[2,3-d]pyrimidin-4-yl)-1H-pyrazol-1-yl)-1-(prop-2-yl-sulfonylimino)azetidine-3-yl)acetonitrile], for which the IC50 against ROCK1 and on ROCK2 was < 50 nM each time.
Consider `C[C@H](O)C(=O)N1CC(CC#N)(n2cc(-c3ncnc4[nH]ccc34)c(N)n2)C1` [Example 33, (S)-2-(3-(3-amino-4-(7H-pyrrolo[2,3-d]pyrimidin-4-yl)-1H-pyrazol-1-yl)-1-(2-hydroxypropionyl)azetidine-3-yl)acetonitrile], for which the IC50 against ROCK1 and on ROCK2 was < 10 nM in each case.
On to `N#CCC1(n2cc(-c3ncnc4[nH]ccc34)c(N)n2)CN(C(=O)C(F)(F)C(F)(F)F)C1` [Example 27], for which the IC50 at ROCK1 and against ROCK2 was < 10 nM throughout.
As to `N#CCC1(n2cc(-c3ncnc4[nH]ccc34)c(N)n2)CN(S(=O)(=O)N(CC(F)(F)F)CC(F)(F)F)C1` [Example 43, 3-(3-amino-4-(7H-pyrrolo[2,3-d]pyrimidin-4-yl)-1H-pyrazol-1-yl)-3-(cyanomethyl)-N,N-bis(2,2,2-trifluoroethyl)azetidine-1-sulfonamide], the IC50 against ROCK1 and against ROCK2 was < 10 nM each time.
With `CS(=O)(=O)N1CC(CC#N)(n2cc(-c3ccnc(NCc4ccccc4)n3)c(N)n2)C1` [Example 79, 2-(3-(3-amino-4-(2-(benzylamino)pyrimidin-4-yl)-1H-pyrazol-1-yl)-1-(methylsulfonyl)azetidine-3-yl)acetonitrile], the IC50 against ROCK1 and on ROCK2 was > 100 nM each time.
In the case of `N#CCC1(n2cc(-c3ncnc4[nH]ccc34)c(N)n2)CN(C(=O)NC2CC2)C1` [Example 12, 3-(3-amino-4-(7H-pyrrolo[2,3-d]pyrimidin-4-yl)-1H-pyrazol-1-yl)-3-(cyanomethyl)-N-cyclopropylazetidine-1-formamide], the IC50 against ROCK1 and on ROCK2 was < 50 nM throughout.
Regarding `N#CCC1(n2cc(-c3ncnc4[nH]ccc34)c(N)n2)CN(S(=O)(=O)CCC(F)(F)F)C1` [Example 4, 2-(3-(3-amino-4-(7H-pyrrolo[2,3-d]pyrimidin-4-yl)-1H-pyrazol-1-yl)-1-((3,3,3-trifluoropropyl)sulfonyl)azetidine-3-yl)acetonitrile], the IC50 on ROCK1 and against ROCK2 was < 5 nM throughout.
For the molecule `COc1nn(C2(CC#N)CN(S(=O)(=O)C(C)C)C2)cc1-c1ncnc2[nH]ccc12` [Example 59, 2-(1-(isopropylsulfonyl)-3-(3-methoxy-4-(7H-pyrrolo[2,3-d]pyrimidin-4-yl)-1H-pyrazol-1-yl)azetidine-3-yl)acetonitrile], the values for the concentration for half-maximal inhibition (IC50) against ROCK1 and against ROCK2 were < 50 nM and > 100 nM, respectively.
On the same counts, the results for `CNC(=O)c1nn(C2(CC#N)CN(S(=O)(=O)C(C)C)C2)cc1-c1ncnc2[nH]ccc12` [Example 64, 1-(3-(cyanomethyl)-1-(isopropylsulfonyl)azetidine-3-yl)-N-methyl-4-(7H-pyrrolo[2,3-d]pyrimidin-4-yl)-1H-pyrazol-3-formamide] are > 100 nM and > 100 nM.
`CCS(=O)(=O)N1CC(CC#N)(n2cc(-c3ncnc4[nH]ccc34)c(C(N)=O)n2)C1` [Example 66, 1-(3-(cyanomethyl)-1-(ethylsulfonyl)azetidine-3-yl)-4-(7H-pyrrolo[2,3-d]pyrimidin-4-yl)-1H-pyrazol-3-formamide]: the IC50 at ROCK1 and at ROCK2 was > 100 nM throughout.
With `COC(=O)CNS(=O)(=O)N1CC(CC#N)(n2cc(-c3ncnc4[nH]ccc34)c(N)n2)C1` [Example 53, methyl (3-(3-amino-4-(7H-pyrrolo[2,3-d]pyrimidin-4-yl)-1H-pyrazol-1-yl)-3-(cyanomethyl)azetidine-1-ylsulfonyl)glycinate], the IC50 against ROCK1 and against ROCK2 was < 10 nM throughout.
On to `CS(=O)(=O)N1CC(CC#N)(n2cc(-c3ncnc(NCC4CCOCC4)n3)c(N)n2)C1` [Example 73], for which the IC50 on ROCK1 and against ROCK2 was > 100 nM throughout.
With `N#CCC1(n2cc(-c3ncnc4[nH]ccc34)c(N)n2)CN(S(=O)(=O)CC(=O)NN)C1` [Example 9], the IC50 against ROCK1 and against ROCK2 was < 10 nM in each case.
On to `CC(C)S(=O)(=O)N1CC(CC#N)(n2cc(-c3ncnc4[nH]ccc34)c(C(N)=O)n2)C1` [Example 68, 1-(3-(cyanomethyl)-1-(isopropylsulfonyl)azetidine-3-yl)-4-(7H-pyrrolo[2,3-d]pyrimidin-4-yl)-1H-pyrazol-3-formamide], for which the IC50 against ROCK1 and on ROCK2 was > 100 nM throughout.
`N#CCC1(n2cc(-c3ncnc4[nH]ccc34)c(C(N)=O)n2)CN(S(=O)(=O)CC(F)(F)F)C1` [Example 60, 1-(3-(cyanomethyl)-1-((2,2,2-trifluoroethyl)sulfonyl)azetidine-3-yl)-4-(7H-pyrrolo[2,3-d]pyrimidin-4-yl)-1H-pyrazole-3-formamide]: the IC50 on ROCK1 and against ROCK2 was > 100 nM throughout.
Turning to `N#CCC1(n2cc(-c3ncnc4[nH]ccc34)c(N)n2)CN(C(=O)N2CC(F)(F)C2)C1` [Example 13, 2-(3-(3-amino-4-(7H-pyrrolo[2,3-d]pyrimidin-4-yl)-1H-pyrazol-1-yl)-1-(3,3-difluoroazetidine-1-carbonyl)azetidin-3-yl)acetonitrile], the IC50 against ROCK1 and on ROCK2 was < 50 nM each time.
Consider `N#CCC1(n2cc(-c3ncnc4[nH]ccc34)c(N)n2)CN(S(=O)(=O)NS(N)(=O)=O)C1` [Example 42, 3-(3-amino-4-(7H-pyrrolo[2,3-d]pyrimidin-4-yl)-1H-pyrazol-1-yl)-3-(cyanomethyl)-N-sulfamoylazetidine-1-sulfonamide], for which the IC50 against ROCK1 was < 100 nM; on ROCK2, < 50 nM.
The matching figures for `C[C@H](NC(=O)N1CC(CC#N)(n2cc(-c3ncnc4[nH]ccc34)c(N)n2)C1)C(F)(F)F` [Example 16, (S)-3-(3-amino-4-(7H-pyrrolo[2,3-d]pyrimidin-4-yl)-1H-pyrazol-1-yl)-3-(cyanomethyl)-N-(1,1,1-trifluoropropan-2-yl)azetidine-1-formamide]: < 50 nM and < 50 nM.
As to `CCS(=O)(=O)N1CC(CC#N)(n2cc(-c3cc(-c4cnn(C)c4)nn4ccnc34)c(N)n2)C1` [Example 80], the IC50 at ROCK1 and against ROCK2 was > 100 nM in each case.
Consider `N#CCC1(n2cc(-c3ncnc4[nH]ccc34)c(N)n2)CN(C(=O)NCC(F)(F)F)C1` [Example 11, 3-(3-amino-4-(7H-pyrrolo[2,3-d]pyrimidin-4-yl)-1H-pyrazol-1-yl)-3-(cyanomethyl)-N-(2,2,2-trifluoroethyl)azetidine-1-formamide], for which the IC50 against ROCK1 and against ROCK2 was < 10 nM each time.
On to `N#CCC1(n2cc(-c3ncnc4[nH]ccc34)c(N)n2)CN(S(=O)(=O)NCCO)C1` [Example 44, 3-(3-amino-4-(7H-pyrrolo[2,3-d]pyrimidin-4-yl)-1H-pyrazol-1-yl)-3-(cyanomethyl)-N-(2-hydroxyethyl)azetidine-1-sulfonamide], for which the IC50 on ROCK1 and against ROCK2 was < 50 nM in each case.
Turning to `CS(=N)(=O)N1CC(CC#N)(n2cc(-c3ncnc4[nH]ccc34)c(N)n2)C1` (stereo not shown) [Example 36, 2-(3-(3-amino-4-(7H-pyrrolo[2,3-d]pyrimidin-4-yl)-1H-pyrazol-1-yl)-1-(S-methysulfonylimino)azetidine-3-yl)acetonitrile], the IC50 against ROCK1 and against ROCK2 was < 5 nM each time.
For `CN(C)S(=O)(=O)N1CC(CC#N)(n2cc(-c3ncnc4[nH]ccc34)c(N)n2)C1` [Example 51, 3-(3-amino-4-(7H-pyrrolo[2,3-d]pyrimidin-4-yl)-1H-pyrazol-1-yl)-3-(cyanomethyl)-N,N-dimethylazetidine-1-sulfonamide], the IC50 against ROCK1 and on ROCK2 was < 10 nM in each case.
